Inhibition and IC50 data for 30 compounds are collected here from ChEMBL document CHEMBL1146254, “Identification of Sansalvamide a analog potent against pancreatic cancer cell lines” (Bioorg Med Chem Lett, 2007).

Settings in all cases: Homo sapiens
A short description of experiment [1]: Cytotoxicity against PL45 cells at 5 uM by [3H]thymidine inhibition assay. Type of experiment: functional, cell-based.
Another experiment deals with BXPC-3. Put plainly: Cytotoxicity against BxPC3 cells at 5 uM by [3H]thymidine inhibition assay. The experiment is classed as functional, cell-based.
A short description of experiment [2]: Cytotoxicity against WS1 cells. Type of experiment: cell-based.

Where a SMILES comes first, the peptide text is derived from it. [ ]: non-standard residue; d: D form. Cha = N[C@@H](CC1CCCCC1)C(=O)O; NMeL = CN[C@@H](CC(C)C)C(=O)O; dNMeL = CN[C@H](CC(C)C)C(=O)O; dNMeV = CN[C@@H](C(=O)O)C(C)C; dAbu = CC[C@@H](N)C(=O)O

Broadly, the inhibition is the relative decrease from the control value, in per cent. With `CC(C)C[C@@H]1NC(=O)[C@H](Cc2ccccc2)NC(=O)[C@H](CC(C)C)NC(=O)[C@@H](C(C)C)NC(=O)[C@H](CCCCNC(=O)Cc2ccccc2)NC1=O`, the inhibition at 5 µM (in experiment [1]; in the experiment on BXPC-3) was 29% in each case.
`CC(C)C[C@@H]1NC(=O)[C@H](Cc2ccccc2)NC(=O)[C@@H](CC(C)C)N(C)C(=O)[C@H](CC(C)C)NC(=O)[C@H](CC(C)C)NC1=O`: the values for the inhibition at 5 µM (in experiment [1]; with BXPC-3) were 5% and 2%, respectively.
For `CC(C)C[C@@H]1NC(=O)[C@H](CC(C)C)NC(=O)[C@H](CC(C)C)NC(=O)[C@@H](Cc2c[nH]c3ccccc23)NC(=O)[C@H](CC(C)C)NC1=O`, in that order: 18% and 30%.
For `CC(C)C[C@@H]1NC(=O)[C@H](Cc2ccccc2)NC(=O)[C@H](CC(C)C)N(C)C(=O)[C@H](CC(C)C)NC(=O)[C@H](CC(C)C)NC1=O`, in that order: 27% and 46%.
For `CC(C)C[C@@H]1NC(=O)[C@H](CC(C)C)NC(=O)[C@H](Cc2ccccc2)NC(=O)[C@@H](CC(C)C)NC(=O)[C@H](CC(C)C)NC1=O`, in that order: 41% and 34%.
As a reminder, the IC50 is the midpoint of a concentration-inhibition curve. A higher IC50 goes with a need for much substance. Regarding `CC(C)C[C@@H]1NC(=O)[C@H](Cc2ccccc2)NC(=O)[C@H](CC(C)C)NC(=O)[C@H](CC(C)C)NC(=O)[C@H](CC(C)C)NC1=O`, the values for the IC50 (in experiment [2]; in experiment [1]; with BXPC-3) were 200 µM, 70 µM and 25 µM, respectively. Also, the figures for the inhibition at 5 µM (in experiment [1]; in the experiment on BXPC-3) were 25% and 42%, respectively.
As to `CC(C)C[C@@H]1NC(=O)[C@H](CC(C)C)NC(=O)[C@H](Cc2ccccc2)NC(=O)[C@@H](CO)NC(=O)[C@H](CC(C)C)NC1=O`, the inhibition at 5 µM in experiment [1] stood at 32%; with BXPC-3 it was 25%.
On to `CC(C)C[C@@H]1NC(=O)[C@H](CC(C)C)NC(=O)[C@H](Cc2ccccc2)N(C)C(=O)[C@H](CC(C)C)NC(=O)[C@H](CC(C)C)NC1=O`, for which the IC50 amounted to 200 µM in experiment [2], 5 µM in experiment [1] and 2 µM with BXPC-3. The inhibition at 5 µM in experiment [1] stood at 44%; in the experiment on BXPC-3 it was 62%.
The matching figures for `CC(C)C[C@@H]1NC(=O)[C@H](CC(C)C)NC(=O)[C@H](CC(C)C)NC(=O)[C@@H](Cc2ccccc2)NC(=O)[C@H](CC(C)C)NC1=O`: 200 µM, 5 µM, 2 µM, 48% and 64%.
For the compound `CC(C)C[C@@H]1NC(=O)[C@H](CC(C)C)NC(=O)[C@H](Cc2ccccc2)NC(=O)[C@@H](Cc2ccccc2)NC(=O)[C@H](CC(C)C)NC1=O`, the inhibition at 5 µM in experiment [1] amounted to 45%; with BXPC-3, 21%.
Turning to `CC(C)C[C@@H]1NC(=O)[C@H](CC(C)C)NC(=O)[C@H](CC(C)C)NC(=O)[C@@H](Cc2ccc(O)cc2)NC(=O)[C@H](CC(C)C)NC1=O`, the inhibition at 5 µM came out at 46% in experiment [1] and 33% in the experiment with BXPC-3.
For `CC(C)C[C@@H]1NC(=O)[C@H](Cc2ccccc2)NC(=O)[C@H](CC(C)C)NC(=O)[C@@H](C(C)C)NC(=O)[C@H](CCCCN)NC1=O` (cyclo(FLK[dV]L)), the figures for the inhibition at 5 µM (in experiment [1]; in the experiment with BXPC-3) were 20% and 16%, respectively.
For `CC[C@H]1NC(=O)[C@H](CC(C)C)NC(=O)[C@H](CC(C)C)NC(=O)[C@H](Cc2ccccc2)NC(=O)[C@H](CC(C)C)NC1=O` (cyclo(FLL[dAbu]L)), in that order: 12% and 17%.
For `CC(C)C[C@@H]1NC(=O)[C@H](Cc2ccccc2)NC(=O)[C@H](CC(C)C)NC(=O)[C@@H](Cc2ccccc2)NC(=O)[C@H](CC(C)C)NC1=O` (cyclo(FLL[dF]L)), in that order: 33% and 8%.
For `CC(C)C[C@@H]1NC(=O)[C@H](Cc2ccccc2)NC(=O)[C@H](CC(C)C)NC(=O)[C@@H](C(C)C)N(C)C(=O)[C@H](CC(C)C)NC1=O` (cyclo(FLL[dNMeV]L)), in that order: 29% and 34%.
As to `CC(C)C[C@@H]1NC(=O)[C@H](Cc2ccccc2)NC(=O)[C@H](CC(C)C)NC(=O)[C@@H](CO)NC(=O)[C@H](CC(C)C)NC1=O` (cyclo(FLL[dS]L)), the results for the inhibition at 5 µM (in experiment [1]; with BXPC-3) were 25% and 22%, respectively.
For `CC(C)C[C@@H]1NC(=O)[C@H](Cc2ccccc2)NC(=O)[C@H](CC(C)C)NC(=O)[C@@H](C(C)C)NC(=O)[C@H](CC(C)C)NC1=O` (cyclo(FLL[dV]L)), the IC50 in experiment [2] was 20 µM; in experiment [1], 1.4 µM; in the experiment on BXPC-3, 5 µM. Further, the values for the inhibition at 5 µM (in experiment [1]; in the experiment on BXPC-3) were 74% and 50%, respectively.
For the compound `CC(C)C[C@@H]1NC(=O)[C@H](Cc2ccccc2)NC(=O)[C@@H](CC(C)C)NC(=O)[C@@H](C(C)C)NC(=O)[C@H](CC(C)C)NC1=O` (cyclo(FLL[dV][dL])), the inhibition at 5 µM in experiment [1] amounted to 41%; in the experiment on BXPC-3, 16%.
The matching figures for `CC(C)C[C@@H]1NC(=O)[C@H](C(C)C)NC(=O)[C@H](CC(C)C)N(C)C(=O)[C@H](CC(C)C)NC(=O)[C@H](Cc2ccccc2)NC1=O` (cyclo(FL[NMeL]VL)): 45% and 2%.
For `CC(C)C[C@@H]1NC(=O)[C@H](Cc2ccccc2)NC(=O)[C@H](CC(C)C)NC(=O)[C@H](C(C)C)NC(=O)[C@@H](CC(C)C)NC1=O` (cyclo(FL[dL]VL)), in that order: 24% and 74%.
Turning to `CC(C)C[C@@H]1NC(=O)[C@H](C(C)C)NC(=O)[C@H](CC(C)C)NC(=O)[C@H](CC(C)C)N(C)C(=O)[C@H](Cc2ccccc2)NC1=O` (cyclo(F[NMeL]LVL)), the IC50 in experiment [2] turned out to be 200 µM; in experiment [1], 3 µM; in the experiment on BXPC-3 it was 2 µM. The figures for the inhibition at 5 µM (in experiment [1]; with BXPC-3) were 55% and 59%, respectively.
Consider `CC(C)C[C@@H]1NC(=O)[C@@H](C(C)C)NC(=O)[C@H](CC(C)C)NC(=O)[C@H](CC(C)C)N(C)C(=O)[C@H](Cc2ccccc2)NC1=O` (cyclo(F[NMeL]L[dV]L)), for which the inhibition at 5 µM was 26% in experiment [1] and 2% in the experiment with BXPC-3.
For `CC(C)C[C@@H]1NC(=O)[C@H](C(C)C)NC(=O)[C@H](CC(C)C)NC(=O)[C@@H](CC(C)C)NC(=O)[C@H](Cc2ccccc2)NC1=O` (cyclo(F[dL]LVL)), in that order: 73% and 29%.
The matching figures for `CC(C)C[C@@H]1NC(=O)[C@@H](C(C)C)N(C)C(=O)[C@H](CC(C)C)NC(=O)[C@@H](CC(C)C)NC(=O)[C@H](Cc2ccccc2)NC1=O` (cyclo(F[dL]L[dNMeV]L)): 21% and 35%.
The matching figures for `CC(C)C[C@@H]1NC(=O)[C@@H](CC(C)C)NC(=O)[C@H](Cc2ccccc2)NC(=O)[C@H](CC(C)C)NC(=O)[C@@H](C(C)C)NC1=O` (cyclo(F[dL]L[dV]L)): 32% and 13%.
On to `CC(C)C[C@@H]1NC(=O)[C@H](C(C)C)NC(=O)[C@H](CC(C)C)N(C)C(=O)[C@@H](CC(C)C)NC(=O)[C@H](Cc2ccccc2)NC1=O` (cyclo(F[dL][NMeL]VL)), for which the inhibition at 5 µM in experiment [1] was found to be 25%; in the experiment with BXPC-3, 71%.
On to `CC(C)C[C@@H]1NC(=O)[C@H](C(C)C)NC(=O)[C@@H](CC(C)C)NC(=O)[C@@H](CC(C)C)NC(=O)[C@H](Cc2ccccc2)NC1=O` (cyclo(F[dL][dL]VL)), for which the results for the IC50 (in experiment [2]; in experiment [1]; in the experiment on BXPC-3) were 200 µM, 5 µM and 1.4 µM, respectively. In addition, the inhibition at 5 µM in experiment [1] was 51%; in the experiment with BXPC-3 it was 78%.
`CC(C)C[C@@H]1NC(=O)[C@H](CC(C)C)NC(=O)[C@@H](Cc2ccccc2)NC(=O)[C@@H](CC(C)C)NC(=O)[C@@H](C(C)C)NC1=O` (cyclo(LL[dV][dL][dF])): the values for the inhibition at 5 µM (in experiment [1]; in the experiment with BXPC-3) were 67% and 34%, respectively.
For `CC(C)C[C@@H]1NC(=O)[C@H](Cc2ccccc2)NC(=O)[C@H](CC(C)C)NC(=O)[C@@H](C(C)C)N(C)C(=O)[C@H](CC2CCCCC2)NC1=O` (cyclo([Cha][dNMeV]LFL)), in that order: 45% and 52%.
Regarding `CC(C)C[C@@H]1NC(=O)[C@H](C(C)C)NC(=O)[C@H](CC(C)C)NC(=O)[C@@H](CC(C)C)N(C)C(=O)[C@H](Cc2ccccc2)NC1=O` (cyclo([dNMeL]LVLF)), the IC50 came out at 200 µM in experiment [2], 3.5 µM in experiment [1] and 3.8 µM with BXPC-3. Also, the inhibition at 5 µM worked out at 52% in experiment [1] and 51% in the experiment with BXPC-3.
